Laboratory results as given in publication PMC8746695, “Zinc-Chelating Compounds as Inhibitors of Human and Bacterial Zinc Metalloproteases” (Molecules, 2021).

Key:
[1] = target: T1, human MT1-MMP/MMP-14 (catalytic domain) (Homo sapiens, UniProt P50281); experiment: Inhibition of MMP-14, fluorescence quenched peptide substrate McaPLGL(Dpa)AR-NH2; assay type: biochemical; settings: substrate McaPLGL(Dpa)AR-NH2 4 µM; 30 min pre-incubation at room temperature; calculated from IC50; read-out: Ki ± s.d. MMP-14
T1 construct: human MT1-MMP/MMP-14 (catalytic domain); purchased Calbiochem (San Diego, CA, USA)
Protocol: (§1) McaPLGL(Dpa)AR-NH2 was used as a substrate for MMP-9 and MMP-14, while McaRPPGFSAFK(Dnp)-OH was used as substrate for ALN, PLN and TLN. The reaction velocities/initial rates (v) were determined at 37 °C, at an excitation wavelength of 320 nm and an emission wavelength of 405 nm with a slit width of 10 nm using either a Perkin Elmer LS 50 Luminescence spectrometer and the FL WinLab Software Package (Perkin Elmer) or a Clario Star microplate reader (CLARIOstar® BMG LABTECH).
(§2) The test compounds were dissolved in 100% DMSO giving a concentration of 10 mM. A fixed substrate concentration of 4.0 µM in a total volume of 100 µL 0.1 M Hepes pH 7.5, 10 mM CaCl2, 0.005% Brij-35 and 1.0% DMSO, were used in all assays, except for ALN where the substrate concentration was 5.0 µM. The fixed enzyme concentrations were as follows; 0.05 nM MMP-9, 1.0 nM MMP-14, 1.4 nM ALN, 0.5 nM PLN and 0.21 nM TLN. Time-dependent inhibitory experiments without and with 100 μM of testing compounds were performed as follows. Compounds were either pre-incubated with the proteases for 15, 30 and 45 min at room temperature and the enzymatic reaction was started by adding the substrate, or not pre-incubated, i.e., the reaction was started by adding the protease to the mixture of substrate and compound. Control tests without compound present were performed in the same way. The reaction was followed for 30 min at 37 °C.
(§3) Enzymes with and without inhibitor were pre-incubated for 30 min at room temperature, and initial rate assays were performed as described above. Assays were performed using a Clario Star microplate reader (CLARIOstar® BMG LABTECH). The IC50 values were calculated in Graph Pad Prism 5 using Equation (1):(1) vi/v0=1/(1+10^(pIC50−pI)) where vi is the enzyme activity in the presence of inhibitor, v0 the activity in the absence of inhibitor, pI = −log [Inhibitor] in M and pIC50 = −log IC50 in M. All experiments were performed in at least triplicate.

[2] = target: T2, recombinant human MMP-9 (Homo sapiens, UniProt P14780); experiment: Inhibition of MMP-9, fluorescence quenched peptide substrate McaPLGL(Dpa)AR-NH2; assay type: biochemical; settings: substrate McaPLGL(Dpa)AR-NH2 4 µM; 30 min pre-incubation at room temperature; calculated from IC50; read-out: Ki ± s.d. MMP-9
T2 construct: made in house; host or cells: Sf9 insect cells
Protocol: The expression and purification of recombinant human full-length proMMP-9 (rpMMP-9) from Sf9 insect cells were performed as described previously. The amount of proMMP-9 was estimated spectrophotometrically at 280 nm using ε280 nm = 114.36 mM^−1 cm^−1 [48]. Activation of the recombinant proMMP-9 was performed with APMA (auto-activation) as described previously. The amount of active MMP-9 was determined by active site titration using galardin also described previously.
as §1, §2, §3

[3] = target: T3, aureolysin (ALN) (Staphylococcus aureus, UniProt P81177); experiment: Inhibition of aureolysin (ALN), substrate McaRPPGFSAFK(Dnp)-OH; assay type: biochemical
T3 construct: purchased BioCentrum Ltd. (Kraków, Poland)
Protocol: as §1, §2, §3

[4] = target: T4, thermolysin (TLN) (Bacillus thermoproteolyticus, UniProt P00800); experiment: Inhibition of thermolysin (TLN), substrate McaRPPGFSAFK(Dnp)-OH; assay type: biochemical; settings: substrate McaRPPGFSAFK(Dnp)-OH 4 µM; 30 min pre-incubation at room temperature; calculated from IC50; read-out: Ki ± s.d. TLN
T4 construct: purchased Calbiochem (San Diego, CA, USA)
Protocol: as §1, §2, §3

[5] = in solution; read-out: Kd for zinc; cited from earlier work

T2 sequence (P14780 107-707 limits assumed): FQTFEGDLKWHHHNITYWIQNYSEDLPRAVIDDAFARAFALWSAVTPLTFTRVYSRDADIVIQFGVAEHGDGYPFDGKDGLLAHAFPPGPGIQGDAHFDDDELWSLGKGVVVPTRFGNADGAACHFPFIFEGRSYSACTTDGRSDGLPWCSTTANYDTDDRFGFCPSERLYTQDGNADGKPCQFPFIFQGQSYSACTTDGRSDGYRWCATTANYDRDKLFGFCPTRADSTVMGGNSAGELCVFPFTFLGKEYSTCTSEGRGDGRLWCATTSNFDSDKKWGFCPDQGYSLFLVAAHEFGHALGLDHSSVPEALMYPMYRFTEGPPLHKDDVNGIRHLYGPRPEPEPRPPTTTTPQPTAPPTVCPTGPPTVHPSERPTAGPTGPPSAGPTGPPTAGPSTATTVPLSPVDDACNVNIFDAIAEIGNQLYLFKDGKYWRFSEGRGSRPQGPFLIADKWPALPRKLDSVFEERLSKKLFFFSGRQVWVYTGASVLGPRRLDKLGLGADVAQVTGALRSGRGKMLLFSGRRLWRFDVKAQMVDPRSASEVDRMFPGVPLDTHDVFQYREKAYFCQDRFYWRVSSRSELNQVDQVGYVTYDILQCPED
T4 sequence (P00800 233-548): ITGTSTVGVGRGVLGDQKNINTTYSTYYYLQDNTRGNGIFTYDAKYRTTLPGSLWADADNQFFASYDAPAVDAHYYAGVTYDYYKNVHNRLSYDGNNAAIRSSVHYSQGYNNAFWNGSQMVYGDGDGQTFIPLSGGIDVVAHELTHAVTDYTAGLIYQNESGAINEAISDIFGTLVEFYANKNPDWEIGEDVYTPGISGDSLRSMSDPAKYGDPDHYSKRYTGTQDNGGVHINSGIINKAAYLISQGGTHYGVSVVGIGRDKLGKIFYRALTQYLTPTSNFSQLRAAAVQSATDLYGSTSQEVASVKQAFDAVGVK
T3 sequence (P81177 209-509): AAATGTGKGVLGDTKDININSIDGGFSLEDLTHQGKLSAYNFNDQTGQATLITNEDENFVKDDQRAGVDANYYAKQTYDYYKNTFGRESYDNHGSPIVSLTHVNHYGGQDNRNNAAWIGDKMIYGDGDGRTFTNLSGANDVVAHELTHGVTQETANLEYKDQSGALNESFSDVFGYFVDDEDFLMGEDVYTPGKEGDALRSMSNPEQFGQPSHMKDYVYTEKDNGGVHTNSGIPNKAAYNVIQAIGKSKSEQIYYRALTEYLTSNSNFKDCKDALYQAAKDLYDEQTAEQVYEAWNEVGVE

`c1ccc(CN(Cc2ccccn2)Cc2ccccn2)nc1` [TPA, tri(2-pyridinemethyl)amine, reference compound] gave a Ki [1] of 1.2 ± 0.1 µM, a Ki [2] of 15 ± 4 µM and a Ki [3] of 16 ± 1 µM. For the same compound, the Ki [4] was 5.5 ± 0.9 µM and the Kd [5] was about 0.01 nM.
